According to US12030908B2, “Antimicrobial compounds, compositions, and uses thereof” (Lakewood Amedex, Inc., priority 2017, dated 2024):

Experiments:
[1] = test system: Helicobacter pylori SS1 (CagA+, VacA+); experiment: Helicobacter pylori stomach infection model in mice, oral treatment; type: in vivo, C57/BL6 mice
Excerpt: The mouse strain used in this study is C57/BL6 ranging from 5-6 weeks in age and 18-22 grams in weight. Mice are housed five to a cage with free access to food and water in accordance with NIH guidelines.
A bacterial strain of Helicobacter pylori SS1 (CagA+, VacA+) is adapted for the mouse model from a human clinical isolate and validated in this infection model.
At 6 days prior to infection, a frozen stock is streaked onto one to two Columbia 5% sheep blood agar plates, and the plates are microaerophilically incubated for 72 hours at 37° C. After 72 hours, the plate growth is subcultured onto five Columbia 5% sheep blood agar plates and is incubated as before. After another 72 hours of incubation, the plates are removed, and the plate growth is suspended in sterile 0.9% saline to an OD of 1.5-2.0 at 530 nm. This OD is approximately equal to 1.0e+09 CFU/mL, which is used to orally infect the mice on all 3 infection days. To infect mice, the mice are orally dosed 0.25 mL of the 1.0e+09 CFU/mL via a 20-22 G gavage needle. Mice need to be fasted only before the first infection.
At 1 week post-infection, mice are treated with Nu-8. Multiple dose antibiotic therapies are administered orally at 0.2 mL/dose. Antibiotics are administered 2 times per day and continued for 7 days. The control group is administered the vehicle alone.
Food is removed from cages 18 hours prior to euthanizing animals and each cage is clearly labeled that the animals are being experimentally fasted. Mice are euthanized (CO2 & cervical dislocation). […] The excised stomach is placed into a sterile petri dish and the luminal contents are rinsed away with sterile 1×PBS. Each rinsed stomach is placed into a 14-mL Falcon tube containing 2 mL of 1×PBS and stored on ice. Each stomach is homogenized, 10-fold serial diluted in 1×PBS, spot plated onto Columbia agar with 3.5% laked horse blood±the DENT selective antibiotic supplement, and microaerophilically incubated for 5 days at 37° C. Then, colonies are counted.
Nu-8 is administered at various doses (mg/kg), orally, twice-a-day for 7 days. The formulations, concentration and dose volumes for treatment is established prior to dosing. The positive control group consists of a triple therapy regimen (omeprazole, amoxicillin, and clarithromycin). Negative control used dosing solution without drugs.

[2] = test system: P. aeruginosa; experiment: Broth microdilution MIC at incremental pH, P. aeruginosa; type: cell-based
Experimental: MIC testing is conducted using the broth (Mueller Hinton Broth) microdilution procedures relevant to each organism group as established by the Clinical and Laboratory Standards Institute (CLSI; 3-7). MIC plates are prepared in accordance with CLSI (3-7). To prepare the test plates, automated liquid handlers are used to conduct serial dilutions and liquid transfers. Automated liquid handlers utilized in this study include the Multidrop 384 (Labsystems, Helsinki, Finland) and the Biomek 2000 (Beckman Coulter, Fullerton CA). The solution is diluted to desired pH using 1 M Citric Acid or 1 M NaOH buffer. A standardized inoculum of each test organism is prepared per CLSI methods (3, 5-7) to equal a 0.5 McFarland standard in the appropriate media followed by an additional 1:20 dilution (1:10 for anaerobes).
The plates are then inoculated with 10 μL of the diluted 0.5 McFarland suspension using the Biomek 2000 from low to high drug concentration, resulting in a final concentration of approximately 5×10^5 CFU/mL per well. An un-inoculated plate is incubated for the purpose of assessing solubility of the drug in the test media. The plates are stacked 3 to 4 high, covered with a sterile lid on the top plate, and incubated for 18 to 24 hours according to CLSI. The MIC is recorded as the lowest concentration of respective compound that inhibited visible growth of the organism.

[3] = test system: Streptococcus pneumoniae (PRSP); experiment: MIC at pH 3.5, CLSI, Mueller-Hinton broth; type: cell-based
[4] = test system: bacterial strains; experiment: MIC at pH 3.5 in human and mouse urine; type: cell-based
[5] = test system: E. coli ATCC25922; experiment: Urinary tract infection model in rats, transurethral treatment (Example 11); type: in vivo, Sprague-Dawley rats; conditions: 60 min
Experimental: Female Sprague-Dawley rats (n=6/group) are intraurethrally infected with the predetermined inoculum size of E. coli. At the specified time following infection with (depending on the in vivo growth curve), the animals are anaesthetized (ketamine/xylazine) and treated by transurethral administration with neutral saline (group 1), saline pH 3.5 adjusted with phosphoric acid (group 2), test compound Nu-8 pH 3.5 at 103 and 207 mg/kg (groups 3 and 4, respectively). When adjusting pH, the volume of phosphoric acid added are monitored and the final concentration of the pH adjusted dose solution are subsequently determined. The goal is to have the final concentration after pH adjustment within 10% of the desired dose so the final concentration after pH adjustment are reported. Volume of administration will be 300 μL. TABLE 9 (Animal Challenge and Treatment Schedule) summarizes the study groups.
Two hours prior to each infection animals are water deprived. Each animal is infected twice with 24 hrs difference by transurethral administration of 300 μL of bacterial suspension under light ketamine and xylazine anaesthesia. Prior to infection, urine is evacuated by digital pressure, cannula is gently inserted into the bladder via urethra, and 300 μL of bacterial suspension is inserted into the bladder. […]

[6] = Body weight in the Acinetobacter baumannii lung infection model (Example 25); type: in vivo, BALB/c mice
[7] = Nu-8 (10%), 3 doses, once daily for 3 days
[8] = Nu-8 (10%), 5 doses, once daily for 5 days

## CCCCOP(=O)(O)OC[C@H]1O[C@@H](n2ccc(N)nc2=O)C[C@@H]1OP(=O)(O)OCCCC [Nu-8, sodium ((2R,3S,5R)-5-(4-amino-2-oxopyrimidin-1(2H)-yl)-3-((butoxyoxidophosphor-yl)oxy)tetrahydrofuran-2-yl)methyl butyl phosphate]
[1]; 0.2 mg (1 mg/mL, 0.2 mL) PO bid for 7 days, +7 Days
  mean bacterial stomach titers of H. pylori SS1 (Log10): 5.62 log10 CFU
[1]; 0.2 mg (1 mg/mL, 0.2 mL) PO bid for 7 days, +14 Days
  mean bacterial stomach titers of H. pylori SS1 (Log10): 6.2 log10 CFU
[1]; 1.0 mg (5 mg/mL, 0.2 mL) PO bid for 7 days, +7 Days
  mean bacterial stomach titers of H. pylori SS1 (Log10): 5.21 log10 CFU
[1]; 1.0 mg (5 mg/mL, 0.2 mL) PO bid for 7 days, +14 Days
  mean bacterial stomach titers of H. pylori SS1 (Log10): 5.67 log10 CFU
[1]; 2 mg (10 mg/mL, 0.2 mL) PO bid for 7 days, +7 Days
  mean bacterial stomach titers of H. pylori SS1 (Log10): 4.74 log10 CFU
[1]; 2 mg (10 mg/mL, 0.2 mL) PO bid for 7 days, +14 Days
  mean bacterial stomach titers of H. pylori SS1 (Log10): 5.81 log10 CFU
[2]; pH 1
  MIC: 9.38 mg/mL
[2]; pH 3
  MIC: 18.75 mg/mL
[2]; pH 4
  MIC: 37.5 mg/mL
[2]; pH 5
  MIC: 75 mg/mL
[2]; pH 7
  MIC: >75 mg/mL
[3]
  Nu-8 MIC (mg/mL) at pH 3.5: 9.38-18.75 mg/mL
[4]
  MICs in human and mouse urine: comparable to those of Nu-8 in Mueller Hinton broth
[5]; pH 3.5, 103 mg/kg transurethral
  mean CFU log 10 per mL of bladder tissue (tissue plus urine): 5.53 Log 10 CFUs/mL bladder tissue
[5]; pH 3.5, 207 mg/kg transurethral
  mean CFU log 10 per mL of bladder tissue (tissue plus urine): 4.60 Log 10 CFUs/mL bladder tissue
[6]; [7]
  Body Weight (g) Mean ± SD Day 0: 25.0 ± 0.6 g
  Body Weight (g) Mean ± SD Day 1: 24.3 ± 0.5 g
  Body Weight (g) Mean ± SD Day 3: 23.7 ± 0.5 g
[6]; [8]
  Body Weight (g) Mean ± SD Day 0: 24.8 ± 0.8 g
  Body Weight (g) Mean ± SD Day 1: 24.0 ± 0.6 g
  Body Weight (g) Mean ± SD Day 3: 23.2 ± 0.8 g
[6]; Nu-8 (10%), 5 doses, once daily for 5 days, Day 2
  Body Weight (g) Mean ± SD Day 2: 23.3 ± 0.5 g
[6]; Nu-8 (10%), 5 doses, once daily for 5 days, Day 4
  Body Weight (g) Mean ± SD Day 4: 23.3 ± 1.0 g
[6]; Nu-8 (10%), 5 doses, once daily for 5 days, Day 5
  Body Weight (g) Mean ± SD Day 5: 24.0 ± 0.6 g
[6]; Nu-8 (10%), single dose
  Body Weight (g) Mean ± SD Day 0: 24.8 ± 0.8 g
  Body Weight (g) Mean ± SD Day 1: 24.0 ± 0.9 g
[6]; vehicle and treatment groups
  change in mean body weights: Decreases in mean body weights were observed
